Measurements taken from US12419869B2, “Methods of treating multiple sclerosis” (Vanda Pharmaceuticals Inc., priority 2021, dated 2025).

Legend:
[1] = test system: adult subjects with relapsing MS; experiment: 12-lead ECG heart rate and AV conduction at treatment initiation (Day 1, ponesimod 2 mg); format: in vivo, human
Description: As per up-titration regimen, the dose of ponesimod on Day 1 is 2 mg.
The incidence of treatment-emergent heart rate and rhythm (including hypotension) AESIs on Day 1 was higher in the ponesimod 20 mg arm (2.1%) than in the teriflunomide 14 mg arm (0.4%). However, the overall incidence of first dose AESI on Day 1 was low (2.1%) in ponesimod. None of these events were serious nor led to permanent discontinuation of study treatment. Discharge criteria at 4 hours post-dose were met for ca. 99% of subjects. […] ECG HR effect: nadir at 2 hours post-dose (siponimod—3-4 hours, fingolimod—around by 6 hours). Low incidence of low HR outliers (post-dose HR 40 bpm), all 3 of them with a pre-treatment HR of <55 bpm, which is a known risk factor for post-dose bradycardia with SIP receptor modulators.
The mean heart rate reduction compared to pre-dose reached a maximum for ponesimod 20 mg at 2-hours post dose, −8.7 bpm compared to −1.7 bpm for teriflunomide 14 mg (FIG. 6).
Initiation of PONVORY may result in a transient decrease in HR. In Study 1, bradycardia at treatment initiation and sinus bradycardia on ECG (defined as HR less than 50 bpm) occurred in 5.8% of PONVORY-treated patients compared to 1.6% of patients receiving teriflunomide 14 mg. After the first titration dose of PONVORY, the decrease in heart rate typically begins within an hour and reaches its nadir within 2-4 hours. The heart rate typically recovers to baseline levels 4-5 hours after administration. The mean decrease in heart rate on Day 1 of dosing was 6 bpm. With up-titration after Day 1, the post-dose decrease in heart rate is less pronounced. […] On Day 1, 3 patients treated with PONVORY had asymptomatic post-dose HR below or equal to 40 bpm; all 3 patients had baseline HRs below 55 bpm.

[2] = test system: adult subjects with relapsing MS; parameters: species or system human; conditions: in vivo; for Discontinuation rate because of elevations in hepatic enzymes / Patients with elevations of ALT to 5-fold the ULN or greater / Subjects with ALT increase >3×ULN (label: 3-fold the ULN or greater) / Subjects with ALT increase >8×ULN: human, 2 year
Text: Based on the individual case review, most ALT/AST increases ≥3×ULN occurred as a single transient asymptomatic episode, resolving with continued treatment or after protocol mandated treatment discontinuation. All but one case of bilirubin increase ≥2×ULN occurred in subjects with pre-treatment bilirubin increases. One case of potential Hy's law occurred in a subject with pre-existing transaminase elevation (ALT>5×ULN), and the event fully resolved within 2 weeks after treatment discontinuation.
In Study 1, elevations of ALT to 5-fold the upper limit of normal (ULN) or greater occurred in 4.6% of patients treated with PONVORY compared to 2.5% of patients who received teriflunomide 14 mg. […] The median time to an elevation of 3-fold the ULN was 3 months. The majority (89%) of patients with ALT increases 3-fold or greater the ULN continued treatment with PONVORY with values returning to less than three times the ULN within approximately 2-4 weeks.

[3] = test system: adult subjects with relapsing MS; experiment: Blood pressure, Study 1; format: in vivo, human; conditions: for Average increase in diastolic blood pressure / Average increase in systolic blood pressure: Study 1
Description: An increase in blood pressure with PONVORY was first detected after approximately 1 month of treatment initiation and persisted with continued treatment. Hypertensive events were reported as an adverse reaction in 10.1% of PONVORY-treated patients and in 9.0% of patients receiving teriflunomide 14 mg. One patient treated with PONVORY experienced a hypertensive crisis but had evidence of longstanding hypertensive heart disease. Blood pressure should be monitored during treatment with PONVORY and managed appropriately.

[4] = test system: adult subjects with relapsing MS; experiment: Pulmonary function (percent predicted FEV1), Study 1; format: in vivo, human
Description: In Study 1, the reduction from baseline in percent predicted FEV1 at 2 years was 8.3% in PONVORY-treated patients compared to 4.4% in patients receiving teriflunomide 14 mg. In Study 1, 7 patients discontinued PONVORY because of pulmonary adverse events. There is insufficient information to determine the reversibility of the decrease in FEV1 or FVC after treatment discontinuation. PONVORY should be used with caution in patients with severe respiratory disease (i.e., pulmonary fibrosis, asthma, and chronic obstructive pulmonary disease). Spirometric evaluation of respiratory function should be performed during therapy with PONVORY if clinically indicated.

[5] = test system: adult subjects with relapsing MS; experiment: EDSS, time to first 12-week / 24-week confirmed disability accumulation (CDA); format: in vivo, human; conditions: for Proportion of Patients with 3-month Confirmed Disability Progression: Kaplan-Meier estimates at Week 108; for Hazard ratio, time to first 12-week CDA (3-month CDP), ponesimod vs teriflunomide: stratified Cox regression
Text: (§1) A 12-week CDA is an increase of at least 1.5 in EDSS for subjects with a baseline EDSS score of 0.0 or an increase of at least 1.0 in EDSS for subjects with a baseline EDSS score of 1.0 to 5.0, or an increase of at least 0.5 in EDSS for subjects with a baseline EDSS score≥5.5 which is to be confirmed after 12 weeks.
All EDSS measurements (with or without relapse, at a scheduled or unscheduled visit) were used to determine the onset of disability accumulation. However, EDSS scores used for confirmation of disability accumulation were obtained at a scheduled visit (i.e., unscheduled visits cannot be used as confirmatory visits) outside any ongoing relapse. In this context, relapse duration is defined as period between start and end dates if available and limited to 90 days from onset if end date is not available or duration is longer than 90 days.
In order to confirm that the EDSS increase is persistent, all EDSS measurements between the onset and the 12-week EDSS confirmation (minus 7-day visit time-window) need to show an increase in EDSS, meeting the criteria for accumulation of disability as defined above.
as §1, with “24-week” for “12-week”, “24” for “12”
The primary endpoint was the annualized relapse rate (ARR) over the study period. Additional outcome measures included: 1) the number of new Gd-enhancing T1 lesions from baseline to Week 108, 2) the number of new or enlarging T2 lesions (without double-counting of lesions) from baseline to Week 108, and 3) the time to 3-month and 6-month confirmed disability progression. A confirmed disability progression was defined as an increase of at least 1.5 in EDSS for patients with a baseline EDSS score of 0, an increase of at least 1.0 in EDSS for patients with a baseline EDSS score of 1.0 to 5.0, or an increase of at least 0.5 in EDSS for patients with a baseline EDSS score at least 5.5, which was confirmed after 3 months and 6 months.

SMILES	Mean heart rate change compared to pre-dose at 2 hours post dose (maximum) ([1]; Day 1) [bpm]	Subjects with asymptomatic post-dose HR ≤40 bpm ([1]; Day 1)	Bradycardia at treatment initiation and sinus bradycardia on ECG (HR less than 50 bpm) ([1]; Study 1) [%]	First-degree AV block (prolonged PR interval on ECG) ([1]; Study 1) [%]	Discontinuation rate because of elevations in hepatic enzymes [2] [%]	Patients with elevations of ALT to 5-fold the ULN or greater [2] [%]	Subjects with ALT increase >3×ULN (label: 3-fold the ULN or greater) [2] [%]	Subjects with ALT increase >8×ULN [2] [%]	Average increase in diastolic blood pressure [3] [mm Hg]	Average increase in systolic blood pressure [3] [mm Hg]	Reduction from baseline in percent predicted FEV1 at 2 years [4] [%]	Proportion of Patients with 3-month Confirmed Disability Progression [5] [%]	Subjects with 24-week CDA ([5]; up to EOS) [%]	further results
C/C(O)=C(\C#N)C(=O)Nc1ccc(C(F)(F)F)cc1 [Teriflunomide, reference compound]	−1.7	none	1.6	1.2	1.9	2.5	8.3	2.1	3.1	2.8	4.4	13.2	9.9	
CCC/N=C1\S/C(=C\c2ccc(OC[C@H](O)CO)c(Cl)c2)C(=O)N1c1ccccc1C [Ponesimod, (R)-5-[3-chloro-4-(2,3-dihydroxy-propoxy)-benz[Z]ylidene]-2-([Z]-propylimino)-3-o-tolyl-thiazolidin-4-one]	−8.7	3	5.8	3.4	2.3	4.6	17.3	0.7	2.8	2.9	8.3	10.8	8.1	Subjects meeting discharge criteria at 4 hours post-dose ([1]; Day 1): ca. 99%; Time for heart rate to recover to baseline / pre-dose values ([1]; Day 1): 4 to 5 h; ECG HR effect: time of nadir post-dose ([1]; Day 1, 2 mg): 2 h; Mean decrease in heart rate on Day 1 of dosing ([1]; Study 1): 6 bpm; Second- and third-degree AV blocks ([1]; Study 1): not reported; Time to heart rate nadir / maximal effect after first dose ([1]; post-dose): 2 to 4 h; Median time to an ALT elevation of 3-fold the ULN [2]: 3 months; Patients with ALT increases 3-fold or greater the ULN who continued treatment [2]: 89%; Time for ALT values returning to less than three times the ULN on continued treatment [2]: 2-4 weeks; Time after treatment initiation at which blood pressure increase was first detected ([3]; in vivo): approximately 1 month; Patients who discontinued because of pulmonary adverse events [4]: 7; Hazard ratio, time to first 24-week CDA, ponesimod vs teriflunomide ([5]; exploratory): 0.84; Reduction of risk of 12-week CDA compared to teriflunomide 14 mg ([5]; not statistically significant): 17%; Reduction of risk of 24-week CDA compared to teriflunomide 14 mg ([5]; not statistically significant): 16%; Hazard ratio, time to first 12-week CDA (3-month CDP), ponesimod vs teriflunomide [5]: 0.83; Hazard ratio, time to first 12-week CDA (3-month CDP), ponesimod vs teriflunomide ([5]; listed as PONVORY): 0.83 (p = 0.29); Hazard ratio, time to first 12-week CDA (3-month CDP), ponesimod vs teriflunomide ([5]; listed as ponesimod): 0.83; Subjects with 12-week CDA ([5]; up to EOS): 10.1%
